In the Kinase Knowledgebase extract (Sharma et al. 2016):

Legend:
MAPK14 = MAPK14 (UniProt Q16539); test: Inhibition of MAPK14 Kinase Activity
CDK2 = CDK2 (UniProt P24941); test: Enzyme Assay

Chain of MAPK14 (Q16539 whole entry, looked up): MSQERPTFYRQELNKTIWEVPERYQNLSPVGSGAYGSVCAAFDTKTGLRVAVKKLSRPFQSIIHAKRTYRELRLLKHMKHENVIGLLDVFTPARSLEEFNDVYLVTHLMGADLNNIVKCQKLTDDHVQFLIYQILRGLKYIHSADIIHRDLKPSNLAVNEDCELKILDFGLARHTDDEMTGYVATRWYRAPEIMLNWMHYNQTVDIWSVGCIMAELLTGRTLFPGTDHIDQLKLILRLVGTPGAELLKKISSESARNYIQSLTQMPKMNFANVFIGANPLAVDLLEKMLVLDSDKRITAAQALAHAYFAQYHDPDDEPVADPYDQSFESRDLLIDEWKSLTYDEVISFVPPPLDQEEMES

SMILES	Kd (MAPK14) [nM]	IC50 (CDK2) [nM]
CC1(c2cc(NC(=O)Nc3ccccc3)n(-c3ccccc3)n2)CCOCC1	280	
Cc1ccc(-n2nc(C(C)(C)C)cc2NC(=O)Nc2cccc3ccccc23)cc1	1	
CC(C)(C)c1cc(NC(=O)Nc2ccccc2)n(-c2ccc(N)cc2)n1	7	
COc1ccc2c(c1)C(=NNc1ccccc1)C(=O)N2		> 10000
CN(C)S(=O)(=O)c1ccc(NN=C2C(=O)Nc3ccc(O)cc32)cc1		10
COc1cccc(-n2nc(C(C)(C)C)cc2NC(=O)Nc2ccccc2)c1	19	
CCC(C)(C)c1cc(NC(=O)Nc2ccccc2)n(-c2ccccc2)n1	12	
CN1CCC(c2c(O)cc(O)c3c2O/C(=C\c2ccc([N+](=O)[O-])cc2)C3=O)CC1		310
CC(C)(C)c1cc(NC(=O)NCCc2ccccc2)n(-c2ccccc2)n1	260	
CC1(c2cc(NC(=O)Nc3ccccc3)n(-c3ccccc3)n2)CCCCC1	22	
CC(C)(C)c1cc(NC(=O)Nc2ccncc2)n(-c2ccccc2)n1	1200	
O=C(Nc1ccccc1)Nc1cc(C2CCCCC2)nn1-c1ccccc1	> 400	
COCC(C)(C)c1cc(NC(=O)Nc2ccccc2)n(-c2ccccc2)n1	1400	
CC(C)(C)c1cc(NC(=O)Nc2ccccc2)n(-c2ccccc2)n1	13	
CN1CCC(c2c(O)cc(O)c3c2O/C(=C\c2ccccc2)C3=O)CC1		1280
Cc1ccc(-n2nc(C(C)(C)C)cc2NC(=O)Nc2ccccc2)cc1	3	
CC(C)(C)c1cc(NC(N)=O)n(-c2ccccc2)n1	> 7000	
CC(C)(C)c1cc(NC(=O)Nc2cccc3ccccc23)n(-c2ccccc2)n1	5	
CC(C)(C)c1cc(NC(=O)Nc2ccc(Cl)cc2)n(-c2ccccc2)n1	8	
CC(C)(C)c1cc(NC(=O)NC2CCCCC2)n(-c2ccccc2)n1	130	
Cc1cc(NC(=O)Nc2ccccc2)n(-c2ccccc2)n1	> 7000	

SMILES	Kd (MAPK14) [nM]	IC50 (CDK2) [nM]
O=C1Nc2ccc(Br)cc2C1=NNc1ccccc1		> 10000
Cc1ccc(-n2nc(C(C)(C)C)cc2NC(=O)Nc2ccccc2F)cc1	14	
CC(C)(C)c1cc(NC(=O)Nc2ccccc2)n(C2CCCCC2)n1	500	
CC(C)(C)c1cc(NC(=O)Nc2ccccn2)n(-c2ccccc2)n1	400	
CN1CCC(c2c(O)cc(O)c3c2O/C(=C\c2ccccc2Cl)C3=O)CC1		3970
CC(C)(C)c1cc(NC(=O)Nc2cccnc2)n(-c2ccccc2)n1	420	
CC(C)(C)c1cc(NC(=O)Nc2ccccc2)n(-c2ccncc2)n1	21	
Cc1cccc(-n2nc(C(C)(C)C)cc2NC(=O)Nc2ccccc2)c1	2	
CC(C)(c1ccccc1)c1cc(NC(=O)Nc2ccccc2)n(-c2ccccc2)n1	760	
Cc1ccccc1-n1nc(C(C)(C)C)cc1NC(=O)Nc1ccccc1	200	
CC(C)(C)c1cc(NC(=O)NCc2ccccc2)n(-c2ccccc2)n1	47	
CC(C)(C)c1cc(NC(=O)Nc2cccc(N)c2)n(-c2ccccc2)n1	100	
CC(C)(C)c1cc(NC(=O)NC2Cc3ccccc3C2)n(-c2ccccc2)n1	14	
CN1CCC(c2c(O)cc(O)c3c2O/C(=C\c2ccc(S(N)(=O)=O)cc2)C3=O)CC1		30
CC(C)(C)c1cc(NC(=O)Nc2ccccc2)n(-c2ccc3ccccc3c2)n1	8	
CC(C)(C)c1cc(NC(=O)Nc2ccc(N)cc2)n(-c2ccccc2)n1	318	
O=C1Nc2ccccc2C1=NNc1ccccc1		> 10000
Cc1cccc(NC(=O)Nc2cc(C(C)(C)C)nn2-c2ccccc2)c1C	3	
COc1ccc(-n2nc(C(C)(C)C)cc2NC(=O)Nc2ccccc2)cc1	31	
Cc1ccc(-n2nc(C(C)(C)C)cc2NC(=O)Nc2ccccc2)cc1C	4	
CC(C)c1cc(NC(=O)Nc2ccccc2)n(-c2ccccc2)n1	330	
